Results as given in ChEMBL document CHEMBL1177851, “Some new biologically active metal-based sulfonamide” (Eur J Med Chem, 2010).
Values after ≈ are worked out from the molar mass of the structure shown.

Key:
Bacillus subtilis = test: Antibacterial activity against Bacillus subtilis at 50 ug/ml after 24 hrs by agar-well diffusion assay; assay type: functional; conditions: read-out: IZ
Microsporum canis = test: Antifungal activity against Microsporum canis at 200 ug/ml after 7 days; assay type: functional; conditions: 168 h
Fusarium solani = test: Antifungal activity against Fusarium solani at 200 ug/ml after 7 days; assay type: functional; conditions: 168 h
[1] = Cytotoxicity against Artemia salina leach eggs; conditions: Egg, read-out: LD50 (the source's name)
Nakaseomyces glabratus = test: Antifungal activity against Candida glabrata at 200 ug/ml after 7 days; assay type: functional; conditions: 168 h
Trichophyton longifusum = test: Antifungal activity against Trichophyton longifusum at 200 ug/ml after 7 days; assay type: functional; conditions: 168 h
Pseudomonas aeruginosa = test: Antibacterial activity against Pseudomonas aeruginosa at 50 ug/ml after 24 hrs by agar-well diffusion assay; assay type: functional; conditions: read-out: IZ
Staphylococcus aureus = test: Antibacterial activity against Staphylococcus aureus at 50 ug/ml after 24 hrs by agar-well diffusion assay; assay type: functional; conditions: read-out: IZ
Salmonella enterica = test: Antibacterial activity against Salmonella typhi at 50 ug/ml after 24 hrs by agar-well diffusion assay; assay type: functional, Salmonella enterica subsp. enterica serovar Typhi; conditions: read-out: IZ
Escherichia coli = test: Antibacterial activity against Escherichia coli at 50 ug/ml after 24 hrs by agar-well diffusion assay; assay type: functional; conditions: read-out: IZ
Aspergillus flavus = test: Antifungal activity against Aspergillus flavus at 200 ug/ml after 7 days; assay type: functional; conditions: 168 h
Shigella flexneri = test: Antibacterial activity against Shigella flexneri at 50 ug/ml after 24 hrs by agar-well diffusion assay; assay type: functional; conditions: read-out: IZ
Candida albicans = test: Antifungal activity against Candida albicans at 200 ug/ml after 7 days; assay type: functional; conditions: 168 h

| Compound | zone of inhibition at 50 µg/mL (Bacillus subtilis) [mm] | inhibition at 200 µg/mL (Microsporum canis) [%] | inhibition at 200 µg/mL (Fusarium solani) [%] | LC50 [1] [mM] | inhibition at 200 µg/mL (Nakaseomyces glabratus) [%] | inhibition at 200 µg/mL (Trichophyton longifusum) [%] | zone of inhibition at 50 µg/mL (Pseudomonas aeruginosa) [mm] | zone of inhibition at 50 µg/mL (Staphylococcus aureus) [mm] | zone of inhibition at 50 µg/mL (Salmonella enterica) [mm] | zone of inhibition at 50 µg/mL (Escherichia coli) [mm] | inhibition at 200 µg/mL (Aspergillus flavus) [%] | zone of inhibition at 50 µg/mL (Shigella flexneri) [mm] | inhibition at 200 µg/mL (Candida albicans) [%] | MIC (Aspergillus flavus) [µg/mL] | MIC (Microsporum canis) [µg/mL] | MIC (Fusarium solani) [µg/mL] | MIC (Nakaseomyces glabratus) [µg/mL] | MIC (Trichophyton longifusum) [µg/mL] | MIC (Candida albicans) [µg/mL] |
| --- | --- | --- | --- | --- | --- | --- | --- | --- | --- | --- | --- | --- | --- | --- | --- | --- | --- | --- | --- |
| O=S(=O)(Nc1ncccn1)c1ccc(/N=C/c2cc(Br)ccc2O)cc1 | 15 | 0 | 48 | > 3.16 | 80 | 81 | 12 | 16 | 13 | 17 | 78 | 8 | 34 | – | – | – | – | – | – |
| Cc1cc(C)nc(NS(=O)(=O)c2ccc(/N=C/c3cc(Br)ccc3O)cc2)n1 | 15 | 73 | 20 | > 3.16 | 0 | 80 | 13 | 17 | 11 | 18 | 38 | 6 | 0 | – | – | – | – | – | – |
| C[C@@H]1[C@H](O)[C@@H](C)/C=C/C=C/C=C/C=C/C=C/C=C/C=C/[C@H](O[C@@H]2O[C@H](C)[C@@H](O)[C@H](N)[C@@H]2O)C[C@@H]2O[C@](O)(C[C@@H](O)C[C@@H](O)[C@H](O)CC[C@@H](O)C[C@@H](O)CC(=O)O[C@H]1C)C[C@H](O)[C@H]2C(=O)O [AMPHOTERICIN B] | – | – | – | – | – | – | – | – | – | – | – | – | – | 20 (≈ 21.6 µM) | – | – | – | – | – |
| C[C@@H](O)[C@H]1C(=O)N2C(C(=O)O)=C(SCCNC=N)C[C@H]12 [IMIPENEM ANHYDROUS] | 26 | – | – | – | – | – | 24 | 26 | 25 | 24 | – | 20 | – | – | – | – | – | – | – |
| Clc1ccc(COC(Cn2ccnc2)c2ccc(Cl)cc2Cl)c(Cl)c1 (stereo not drawn) [MICONAZOLE] | – | – | – | – | – | – | – | – | – | – | – | – | – | – | 98.4 (≈ 236 µM) | 111 (≈ 266 µM) | 73.2 (≈ 176 µM) | 70 (≈ 168 µM) | 111 (≈ 266 µM) |
